System: human normal peripheral blood monocyte
Experiment: Influence of the artificially synthesized peptide on normal cell genes: coculture 7 hr, DNA chip system (Clontech), about 55000 human genes (Table 4)
Type: cell-based
Description: (a) The peptide obtained in Example 3 was added to a human normal peripheral blood monocyte culture system (10 to 100 μg peptide/1×10^6 to 1×10^7 monocytes), and they were cocultured for 7 hr. Then, mRNA was extracted from the monocytes and was applied to analysis for up-regulation and down-regulation in respect to about 55000 human genes by using DNA chip system (Clontech).

[1] = Enhanced Gene, Immune System Gene, Gene No. 21607, colony stimulating factor 1 (macrophage) (CSF1), transcript variant 1
[2] = Enhanced Gene, Immune System Gene, Gene No. 22100, IL5-CI0001-181000-178-f03 CI0001 Homo sapiens cDNA
[3] = Enhanced Gene, Immune System Gene, Gene No. 22254, interleukin 4 (IL4), transcript variant 1
[4] = Enhanced Gene, Immune System Gene, Gene No. 25767, tumor necrosis factor (TNF superfamily, member 2) (TNF)
[5] = Enhanced Gene, Immune System Gene, Gene No. 28615, IL3-UT0117-080301-496-D07 UT0117 Homo sapiens cDNA
[6] = Enhanced Gene, Immune System Gene, Gene No. 29703, chemokine (C—X—C motif) ligand 9 (CXCL9)
[7] = Enhanced Gene, Immune System Gene, Gene No. 45170, transforming growth factor beta 1 induced transcript 1 (TGFB1I1)
[8] = Enhanced Gene, Immune System Gene, Gene No. 51904, interleukin 1 family, member 8 (eta) (IL1F8), transcript variant 1
[9] = Enhanced Gene, Oncogene, Gene No. 2183, neuro-oncological ventral antigen 1 (NOVA1), transcript variant 1
[10] = Enhanced Gene, Oncogene, Gene No. 3642, RAB2, member RAS oncogene family (RAB2)
[11] = Enhanced Gene, Oncogene, Gene No. 3858, preferentially expressed antigen in melanoma (PRAME), transcript variant 3
[12] = Enhanced Gene, Oncogene, Gene No. 4210, RAS-like, family 11, member A (RASL11A)
[13] = Enhanced Gene, Oncogene, Gene No. 6231, breast carcinoma amplified sequence 1 (BCAS1)
[14] = Enhanced Gene, Oncogene, Gene No. 6329, mutated in colorectal cancers (MCC)
[15] = Enhanced Gene, Oncogene, Gene No. 7394, HELA CELLS COT 25-NORMALIZED cDNA clone CS0DK007YM05 3-PRIME
[16] = Enhanced Gene, Oncogene, Gene No. 8431, Ras-associated protein Rap1 (RBJ)
[17] = Enhanced Gene, Oncogene, Gene No. 8440, mab-21-like 2 (C elegans) (MAB21L2)
[18] = Enhanced Gene, Oncogene, Gene No. 14195, B-cell translocation gene 4 (BTG4)
[19] = Enhanced Gene, Oncogene, Gene No. 18829, v-myc myelocytomatosis viral related oncogene, neuroblastoma derived (avian) (MYCN)
[20] = Enhanced Gene, Oncogene, Gene No. 21713, zn87b11y5 Stratagene lung carcinoma 937218 cDNA clone IMAGE: 565149 5′
[21] = Enhanced Gene, Oncogene, Gene No. 22388, zb91f05s1 Soares_parathyroid_tumor NbHPA cDNA clone IMAGE: 320193 3′
[22] = Enhanced Gene, Oncogene, Gene No. 22675, endogenous retroviral family W, env(C7), member 1 (syncytin) (ERVWE1), mRNA
[23] = Enhanced Gene, Oncogene, Gene No. 24910, platelet-derived growth factor beta polypeptide (simian sarcoma viral (v-sis) oncogene homolog) (PDGFB), transcript variant 2
[24] = Enhanced Gene, Oncogene, Gene No. 29317, T-cell leukemia/lymphoma 6 (TCL6), transcript variant TCL6a1
[25] = Enhanced Gene, Oncogene, Gene No. 32050, disrupted in renal carcinoma 1 (DIRC1)
[26] = Enhanced Gene, Oncogene, Gene No. 34854, NEUROBLASTOMA COT 25-NORMALIZED cDNA clone CS0DC018YE24 3-PRIME
[27] = Enhanced Gene, Oncogene, Gene No. 34979, yu38e06r1 Soares ovary tumor NbHOT cDNA clone IMAGE: 236098 5′
[28] = Enhanced Gene, Oncogene, Gene No. 36631, RAB43, member RAS oncogene family (RAB43), mRNA
[29] = Enhanced Gene, Oncogene, Gene No. 37781, NEUROBLASTOMA COT 25-NORMALIZED cDNA clone CS0DC011YD03 5-PRIME
[30] = Enhanced Gene, Oncogene, Gene No. 38566, RAS protein activator like 2, mRNA (cDNA clone IMAGE: 5399841), with apparent retained intron
[31] = Enhanced Gene, Oncogene, Gene No. 46997, clone N11 NTera2D1 teratocarcinoma mRNA
[32] = Suppressed Gene, Cancer Suppressing Gene, Gene No. 8280, brain specific protein (CGI-38)
[33] = Suppressed Gene, Cancer Suppressing Gene, Gene No. 11261, breast cancer metastasis suppressor 1 (BRMS1)
[34] = Suppressed Gene, Cancer Suppressing Gene, Gene No. 11438, serologically defined breast cancer antigen 84 (SDBCAG84), transcript variant 1
[35] = Suppressed Gene, Cancer Suppressing Gene, Gene No. 30909, tumor rejection antigen (gp96) 1 (TRA1)
[36] = Suppressed Gene, Cancer Suppressing Gene, Gene No. 35687, heat shock protein 75 (TRAP1)
[37] = Suppressed Gene, Cancer Suppressing Gene, Gene No. 36334, heat shock 70 kDa protein 14 (HSPA14)
[38] = Suppressed Gene, Cancer Suppressing Gene, Gene No. 37600, AHA1, activator of heat shock 90 kDa protein ATPase homolog 1 (yeast) (AHSA1)
[39] = Suppressed Gene, Cancer Suppressing Gene, Gene No. 50395, Ras suppressor protein 1 (RSU1), transcript variant 1
[40] = Suppressed Gene, Cancer Suppressing Gene, Gene No. 52111, leukemia cell normalized cDNA library cDNA clone LEU1757_26_C2
[41] = Suppressed Gene, Immune System Gene, Gene No. 4403, programmed cell death 4 (neoplastic transformation inhibitor) (PDCD4), transcript variant 2
[42] = Suppressed Gene, Immune System Gene, Gene No. 4899, interferon (alpha, beta and omega) receptor 2 (IFNAR2), transcript variant 1
[43] = Suppressed Gene, Immune System Gene, Gene No. 8634, perform 1 (pore forming protein) (PRF1)
[44] = Suppressed Gene, Immune System Gene, Gene No. 8922, interferon induced transmembrane protein 1 (9-27) (IFITM1)
[45] = Suppressed Gene, Immune System Gene, Gene No. 9938, interleukin 17D (IL17D)
[46] = Suppressed Gene, Immune System Gene, Gene No. 10204, interferon-related developmental regulator 1 (IFRD1)
[47] = Suppressed Gene, Immune System Gene, Gene No. 10791, HLA-B associated transcript 5 (BAT5)
[48] = Suppressed Gene, Immune System Gene, Gene No. 11236, natural killer cell group 7 sequence (NKG7), mRNA
[49] = Suppressed Gene, Immune System Gene, Gene No. 11635, thymosin, beta 4, Y-linked (TMSB4Y)

Substance: the Peptide (QPQFGRRMESK; Human squamous cell carcinoma)
- Enhancement Ratio [1]: 7.233
- Expression Amount after Treatment with the Peptide [1]: 24.93
- Enhancement Ratio [2]: 1.853
- Expression Amount after Treatment with the Peptide [2]: 608.5
- Enhancement Ratio [3]: 4.547
- Expression Amount after Treatment with the Peptide [3]: 122.7
- Enhancement Ratio [4]: 37.72
- Expression Amount after Treatment with the Peptide [4]: 4927
- Enhancement Ratio [5]: 7.555
- Expression Amount after Treatment with the Peptide [5]: 20.69
- Enhancement Ratio [6]: 30.05
- Expression Amount after Treatment with the Peptide [6]: 19.83
- Enhancement Ratio (Enhanced Gene, Immune System Gene, Gene No. 30707, immunoglobulin superfamily, member 4C (IGSF4C)): 7.379
- Enhancement Ratio [7]: 2.225
- Expression Amount after Treatment with the Peptide [7]: 85.26
- Enhancement Ratio [8]: 4.932
- Expression Amount after Treatment with the Peptide [8]: 11.37
- Enhancement Ratio [9]: 2.53
- Expression Amount after Treatment with the Peptide [9]: 8.623
- Enhancement Ratio [10]: 2.032
- Expression Amount after Treatment with the Peptide [10]: 3307
- Enhancement Ratio [11]: 2.462
- Expression Amount after Treatment with the Peptide [11]: 22.62
- Enhancement Ratio [12]: 6.36
- Expression Amount after Treatment with the Peptide [12]: 393.7
- Enhancement Ratio [13]: 9.349
- Expression Amount after Treatment with the Peptide [13]: 5.453
- Enhancement Ratio [14]: 1.786
- Expression Amount after Treatment with the Peptide [14]: 67.54
- Enhancement Ratio [15]: 11.83
- Expression Amount after Treatment with the Peptide [15]: 350.3
- Enhancement Ratio [16]: 2.435
- Expression Amount after Treatment with the Peptide [16]: 18.61
- Enhancement Ratio [17]: 2.175
- Expression Amount after Treatment with the Peptide [17]: 15.71
- Enhancement Ratio [18]: 2.567
- Expression Amount after Treatment with the Peptide [18]: 7.219
- Enhancement Ratio [19]: 2.225
- Expression Amount after Treatment with the Peptide [19]: 15.32
- Enhancement Ratio [20]: 45.9
- Expression Amount after Treatment with the Peptide [20]: 7.742
- Enhancement Ratio [21]: 9.47
- Expression Amount after Treatment with the Peptide [21]: 571.2
- Enhancement Ratio [22]: 2.498
- Expression Amount after Treatment with the Peptide [22]: 204.4
- Enhancement Ratio [23]: 1.898
- Expression Amount after Treatment with the Peptide [23]: 55.05
- Enhancement Ratio [24]: 3.478
- Expression Amount after Treatment with the Peptide [24]: 10.06
- Enhancement Ratio [25]: 28.44
- Expression Amount after Treatment with the Peptide [25]: 9.806
- Enhancement Ratio [26]: 26.92
- Expression Amount after Treatment with the Peptide [26]: 1.098
- Enhancement Ratio [27]: 9.116
- Expression Amount after Treatment with the Peptide [27]: 24.17
- Enhancement Ratio [28]: 5.871
- Expression Amount after Treatment with the Peptide [28]: 417.5
- Enhancement Ratio [29]: 12.79
- Expression Amount after Treatment with the Peptide [29]: 32.41
- Enhancement Ratio [30]: 1.982
- Expression Amount after Treatment with the Peptide [30]: 14.55
- Enhancement Ratio [31]: 21.14
- Expression Amount after Treatment with the Peptide [31]: 236.2
- Expression Amount after Treatment with the Peptide [32]: 9
- Suppression Ratio [32]: 84.27
- Expression Amount after Treatment with the Peptide [33]: 6.257
- Suppression Ratio [33]: 60.59
- Expression Amount after Treatment with the Peptide [34]: 14.74
- Suppression Ratio [34]: 81.87
- Expression Amount after Treatment with the Peptide [35]: 11.47
- Suppression Ratio [35]: 86.08
- Expression Amount after Treatment with the Peptide [36]: 0.2252
- Suppression Ratio [36]: 461.4
- Expression Amount after Treatment with the Peptide [37]: 2.08
- Suppression Ratio [37]: 164.2
- Expression Amount after Treatment with the Peptide [38]: 8.429
- Suppression Ratio [38]: 116.6
- Expression Amount after Treatment with the Peptide [39]: 8.763
- Suppression Ratio [39]: 53.66
- Expression Amount after Treatment with the Peptide [40]: 13.6
- Suppression Ratio [40]: 43.65
- Expression Amount after Treatment with the Peptide [41]: 21.97
- Suppression Ratio [41]: 40.6
- Expression Amount after Treatment with the Peptide [42]: 4.5
- Suppression Ratio [42]: 119.2
- Expression Amount after Treatment with the Peptide [43]: 10.2
- Suppression Ratio [43]: 92.95
- Expression Amount after Treatment with the Peptide [44]: 110.9
- Suppression Ratio [44]: 98.91
- Expression Amount after Treatment with the Peptide [45]: 0.3
- Suppression Ratio [45]: 39.28
- Expression Amount after Treatment with the Peptide [46]: 9.714
- Suppression Ratio [46]: 71.65
- Expression Amount after Treatment with the Peptide [47]: 3.429
- Suppression Ratio [47]: 150.9
- Expression Amount after Treatment with the Peptide [48]: 65.47
- Suppression Ratio [48]: 72.38
- Expression Amount after Treatment with the Peptide [49]: 2.5
- Suppression Ratio [49]: 42.45
- Expression Amount after Treatment with the Peptide (Suppressed Gene, Immune System Gene, Gene No. 11651, implantation-associated protein (DKFZp564K142)): 12.84
